ChEMBL document CHEMBL1201862, “PubChem BioAssay data set” (2004)
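The compound was tested at five concentrations on cells cultured in 96-well plates, with a 48-hour exposure period. GI50: concentration for 50% inhibition of growth.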 The source made the active and inactive calls. Cut-off read from the data, not from the text of the source: active = GI50 up to about 1.1 µM and inactive = higher.

What was measured:
Assay in all cases: NCI anticancer screen, dose series, 48 h
MDA-N = test system: MDA-N
SK-MEL-28 = test system: SK-MEL-28
786-0 = test system: 786-0
ACHN = test system: ACHN
T47D = test system: T47D
NCI-H460 = test system: NCI-H460
HCT-15 = test system: HCT-15
SF-268 = test system: SF-268
SF-295 = test system: SF-295
HOP-62 = test system: HOP-62
CAKI-1 = test system: CAKI-1
EKVX = test system: EKVX
HOP-92 = test system: HOP-92
CCRF-CEM = test system: CCRF-CEM
RXF 393 = test system: RXF 393
SNB-75 = test system: SNB-75
SK-MEL-2 = test system: SK-MEL-2
MCF7 = test system: MCF7
NCI-H23 = test system: NCI-H23
OVCAR-8 = test system: OVCAR-8
COLO 205 = test system: COLO 205
TK-10 = test system: TK-10
NCI/ADR-RES = test system: NCI/ADR-RES
UO-31 = test system: UO-31
PC-3 = test system: PC-3
UACC-257 = test system: UACC-257
HCC 2998 = test system: HCC 2998
KM12 = test system: KM12
SW-620 = test system: SW-620
HT-29 = test system: HT-29
SK-MEL-5 = test system: SK-MEL-5
UACC-62 = test system: UACC-62
NCI-H226 = test system: NCI-H226
Malme-3M = test system: Malme-3M
HL-60 = test system: HL-60
RPMI-8226 = test system: RPMI-8226
SK-OV-3 = test system: SK-OV-3
Hs-578T = test system: Hs-578T
M14 = test system: M14
A549 = test system: A549
SF-539 = test system: SF-539
U-251 = test system: U-251
DU-145 = test system: DU-145
SNB-19 = test system: SNB-19
MDA-MB-231 = test system: MDA-MB-231
HCT-116 = test system: HCT-116
K562 = test system: K562
SR = test system: SR
LOX IMVI = test system: LOX IMVI
SN12C = test system: SN12C
MDA-MB-435 = test system: MDA-MB-435
OVCAR-5 = test system: OVCAR-5
MOLT-4 = test system: MOLT-4
OVCAR-3 = test system: OVCAR-3
A498 = test system: A498

With CC(C)OC(=O)NNc1cccc(Cl)c1 the GI50 (MDA-N) was > 100 µM (inactive), the GI50 (SK-MEL-28) was > 100 µM (inactive) and the GI50 (786-0) was > 100 µM (inactive). For the same compound, the GI50 (ACHN) was > 100 µM (inactive), the GI50 (T47D) was > 100 µM (inactive) and the GI50 (NCI-H460) was > 100 µM (inactive). The GI50 (HCT-15) was over 100 µM, the GI50 (SF-268) was > 100 µM (inactive) and the GI50 (SF-295) was > 100 µM (inactive). The GI50 (HOP-62) was > 100 µM (inactive), the GI50 (CAKI-1) was 61.7 µM (inactive) and the GI50 (EKVX) was > 100 µM (inactive). For the same compound, the GI50 (HOP-92) was > 100 µM (inactive), the GI50 (CCRF-CEM) was > 100 µM (inactive) and the GI50 (RXF 393) was > 100 µM (inactive). The GI50 (SNB-75) was > 100 µM (inactive), the GI50 (SK-MEL-2) was 19.4 µM (inactive) and the GI50 (MCF7) was > 100 µM (inactive). For the same compound, the GI50 (NCI-H23) was > 100 µM (inactive), the GI50 (OVCAR-8) was > 100 µM (inactive) and the GI50 (COLO 205) was > 100 µM (inactive). For the same compound, the GI50 (TK-10) was > 100 µM (inactive), the GI50 (NCI/ADR-RES) was > 100 µM (inactive) and the GI50 (UO-31) was > 100 µM (inactive). The GI50 (PC-3) was > 100 µM (inactive), the GI50 (UACC-257) was > 100 µM (inactive) and the GI50 (HCC 2998) was > 100 µM (inactive). For the same compound, the GI50 (KM12) was > 100 µM (inactive), the GI50 (SW-620) was > 100 µM (inactive) and the GI50 (HT-29) was > 100 µM (inactive). For the same compound, the GI50 (SK-MEL-5) was > 100 µM (inactive), the GI50 (UACC-62) was 38.4 µM (inactive) and the GI50 (NCI-H226) was > 100 µM (inactive). The GI50 (Malme-3M) was > 100 µM (inactive), the GI50 (HL-60) was 33.3 µM (inactive) and the GI50 (RPMI-8226) was 66.1 µM (inactive). For the same compound, the GI50 (SK-OV-3) was > 100 µM (inactive), the GI50 (Hs-578T) was > 100 µM (inactive) and the GI50 (M14) was > 100 µM (inactive). For the same compound, the GI50 (A549) was > 100 µM (inactive), the GI50 (SF-539) was > 100 µM (inactive) and the GI50 (U-251) was > 100 µM (inactive). For the same compound, the GI50 (DU-145) was > 100 µM (inactive), the GI50 (SNB-19) was > 100 µM (inactive) and the GI50 (MDA-MB-231) was > 100 µM (inactive). For the same compound, the GI50 (HCT-116) was > 100 µM (inactive), the GI50 (K562) was 47.3 µM (inactive) and the GI50 (SR) was > 100 µM (inactive). The GI50 (LOX IMVI) was 65.8 µM (inactive), the GI50 (SN12C) was > 100 µM (inactive) and the GI50 (MDA-MB-435) was > 100 µM (inactive). For the same compound, the GI50 (OVCAR-5) was > 100 µM (inactive), the GI50 (MOLT-4) was > 100 µM (inactive) and the GI50 (OVCAR-3) was > 100 µM (inactive). For the same compound, the GI50 (A498) was > 100 µM (inactive).
